Columns and labels:
plasma bile acid = assay: Plasma bile acid concentrations in ZDF rats; format: in vivo
Protocol: (§1) Male Zucker diabetic fatty rats (ZDF/GmiCrl-fa/fa) were purchased from Charles River (Raleigh, N.C.) and housed under controlled conditions (12:12 light-dark cycle, 24° C. and 50% relative humidity) with free access to rodent food (Purina 5008, Harlan Teklad, Indianapolis, Ind.). All rats arrived at seven weeks of age (±3 days). After a one-week acclimation period, rats were anesthetized with isoflurane (Abbott Laboratories, IL) and tail-vein blood samples were collected at 9 am without fasting. Blood glucose levels were measured using a glucometer (Bayer, Leverkusen, Germany). In order to ensure balanced treatment groups, ZDF rats were assigned to six treatment groups based upon baseline glucose: vehicle (0.5% HPMC, 0.1% Tween80) and five doses of 264W94 (0.001, 0.01, 0.1, 1, 10 mg/kg). All treatments were given via oral gavage twice a day and animals were followed for two weeks with blood samples collected from tail vein at the end of each week at 9 am without fasting. Fecal samples were collected for 24 hours during the second week of treatment.
(§2) Non-esterified fatty acids (NEFA), bile acids, and bile acids in fecal extraction were measured using the Olympus AU640 clinical chemistry analyzer (Beckman Coulter, Irving, Tex.).
Male ZDF rats (n=4) were administered vehicle, SC-435 (1, 10 or 30 mg/kg) or LUM002 (0.3, 1, 3, 10 or 30 mg/kg) by oral gavage twice a day for 2 weeks. Plasma bile acid levels were determined at the end of the second week. […] Data are expressed as mean values±SEM.

bile acids in the feces = assay: Fecal bile acid excretion in ZDF rats after oral 264W94; format: in vivo, Zucker diabetic fatty rats (ZDF/GmiCrl-fa/fa)
Protocol: as §1, §2

GLP-2 = GLP-2 in plasma of non-fasted ZDF rats, 2 weeks treatment; format: in vivo
plasma amylase = assay: Plasma amylase in ZDF rats, week 3; format: in vivo; settings: twice daily oral gavage
total serum bile acids = assay: Plasma total serum bile acids in ZDF rats, week 3; format: in vivo; settings: twice daily oral gavage
plasma lipase = assay: Plasma lipase in ZDF rats, week 3; format: in vivo; settings: twice daily oral gavage
Hemoglobin A1c (HbA1c) = assay: Baseline-corrected percent HbA1c in ZDF rats; format: in vivo; settings: twice daily oral gavage
[1] = system: Alkaline Phosphatase (ALP); settings: twice daily oral gavage; Week 3
Protocol: This study was conducted to determine the effects of two non-absorbed ASBTi compounds in the ZDF rat model after 3 weeks of treatment.
Animals were acclimatized for 5-7 days after arrival. […] The 2nd set of study was initiated after completion of the 1st. Test compound formulation prepared every other day and stored at 4° C. […] After 3rd week of treatment blood samples were collected by cardiac puncture from fasted animals for blood chemistry analysis: ALAT, ASAT, GGT, Alkaline Phosphatase and total Bile Acids. Tests were performed in contract clinical laboratory (Liver Profile SA320, Antech Diagnostics, Orange Country, Calif.).
Blood was collected by tail vein bleed weekly and after 3 weeks of treatment by cardiopuncture for serum tests. Data for each group is presented as the Mean Value±SEM. Statistically evaluation by t-test: *P<0.05, **P<0.01,***P<0.001 vs. vehicle group.

plasma triglycerides = assay: Plasma triglycerides in ZDF rats, week 3; format: in vivo; settings: twice daily oral gavage, no dose-related response
[2] = system: Alanine Aminotransferase (ALAT); assay: Plasma alanine aminotransferase in ZDF rats, week 3; format: in vivo; settings: twice daily oral gavage
[3] = 264W94 0.001-10 mg/kg oral gavage twice a day, 2 weeks

SMILES: CCCC[C@]1(CC)CS(=O)(=O)c2cc(OC)c(OC)cc2[C@@H](c2ccccc2)N1 [Compound 264W94]
- Plasma bile acid concentrations (plasma bile acid; [3]): decreased dose-dependently
- Bile acids in the feces (bile acids in the feces; [3]): dose-dependently increased
- Fecal bile acid concentrations elevated vs vehicle treated rats (bile acids in the feces; 264W94 0.001-10 mg/kg oral gavage twice a day, 24 h feces in second week): up to 6.5 fold
- Fecal NEFA (bile acids in the feces; 264W94 oral gavage twice a day, 2 weeks): slightly increased
- ED50 (fecal bile acid elevation) (bile acids in the feces; oral gavage twice a day, 2 weeks): 0.17 mg/kg

SMILES: CCCCC1(CCCC)CS(=O)(=O)c2ccc(N(C)C)cc2[C@@H](c2ccc(OCCCC[N+]34CCN(CC3)CC4)cc2)[C@H]1O.CS(=O)(=O)[O-] [SC-435, 1-[4-[4-[(4R,5R)-3,3-dibutyl-7-(dimethylamino)-2,3,4,5-tetrahydro-4-hydroxy-1,1-dioxido-1-benzothiepin-5-yl]phenoxy]butyl]4-aza-1-azoniabicyclo[2.2.2]octane methanesulfonate salt, reference compound]
- Plasma bile acid levels (plasma bile acid; SC-435 1, 10 or 30 mg/kg, LUM002 0.3, 1, 3, 10 or 30 mg/kg, oral gavage twice a day, end of second week, n=4): decreased for all doses
- GLP-2 in plasma (GLP-2): significant elevations in GLP2 at higher doses
- Plasma amylase (plasma amylase): Neither LUM002 nor SC-435 caused a statistically significant changes
- Plasma total serum bile acids (SBA) (total serum bile acids): statistically significant reductions in SBA
- Plasma lipase (plasma lipase): statistically significant reductions in plasma lipase at higher doses
- Baseline-corrected percent HbA1c (Hemoglobin A1c (HbA1c)): significant dose-dependent reductions
- Plasma alkaline phosphatase (ALP) [1]: significant reductions in ALP
- Fasting plasma triglycerides (plasma triglycerides): statistically significant elevations
- Plasma alanine aminotransferase (ALAT) [2]: Neither LUM002 nor SC-435 caused statistically significant reductions
